Reference: patent US20230079045A1 (priority 2019, published 2023)

What was measured:
IFVA/Mal/302/54 = assay: cytopathic effect (CPE) antiviral test in MDCK cells, IFVA/Mal/302/54; format: cell-based, influenza virus; settings: unidentified influenza virus, MDCK, 120 h, read-out: EC50(IFVA/Mal/302/54), MDCK cells, CPE method, CCK-8 cell viability, 5 days
IFVA/Weiss/43 = assay: cytopathic effect (CPE) antiviral test in MDCK cells, IFVA/Weiss/43; format: cell-based, influenza virus; settings: unidentified influenza virus, MDCK, 120 h, read-out: EC50(IFVA/Weiss/43), MDCK cells, CPE method, CCK-8 cell viability, 5 days

Compound | EC50 (IFVA/Mal/302/54) [nM] | EC50 (IFVA/Weiss/43) [nM]
CC(=O)Nc1ccc2oc(-c3ccnc(C(=O)N4CCC5(CC4)CN(C(c4ccccc4)c4nnn(C)n4)C5)c3)nc2c1 (stereo not shown) [Compound 13, N-(2-(2-(2-((2-methyl-2H-tetrazol-5-yl)(phenyl)methyl)-2,7-diazaspiro[3.5]nonane-7-carbonyl)pyridin-4-yl)benzo[d]oxazol-5-yl)acetamide] | 7830 | > 10000
CC(=O)Nc1ccc2oc(-c3ccnc(C(=O)N4C[C@@H]5C[C@H]4CN5C(c4ccccc4)c4nnn(C)n4)c3)nc2c1 (stereo partly drawn) [Compound 14, N-(2-(2-((1S,4S)-5-((2-methyl-2H-tetrazol-5-yl)(phenyl)methyl)-2,5-diazabicyclo[2.2.1]heptane-2-carbonyl)pyridin-4-yl)benzo[d]oxazol-5-yl)acetamide] | 1100 | 383
CC(=O)Nc1ccc2oc(-c3ccc(C#N)c(C(=O)N4CCN(C(c5ccccc5)c5nnn(C)n5)CC4)c3)nc2c1 (stereo not shown) [Compound 15, N-(2-(4-cyano-3-(4-((2-methyl-2H-tetrazol-5-yl)(phenyl)methyl)piperazine-1-carbonyl)phenyl)benzo[d]oxazol-5-yl)acetamide] | > 10000 | > 10000
CC(=O)Nc1ccc2oc(-c3ccnc(C(=O)N4C5CCC4CN(C(c4ccccc4)c4nnn(C(F)F)n4)C5)c3)nc2c1 (stereo not shown) [Compound 17, N-(2-(2-(3-((2-(difluoromethyl)-2H-tetrazol-5-yl)(phenyl)methyl)-3,8-diazabicyclo[3.2.1]octane-8-carbonyl)pyridin-4-yl)benzo[d]oxazol-5-yl)acetamide] | 22 | 9
CC(=O)Nc1ccc2oc(-c3ccnc(C(=O)N4C5CCC4CN(C(c4ccccc4)c4nnnn4C(F)F)C5)c3)nc2c1 (stereo not shown) [Compound 18, N-(2-(2-(3-((1-(difluoromethyl)-1H-tetrazol-5-yl)(phenyl)methyl)-3,8-diazabicyclo[3.2.1]octane-8-carbonyl)pyridin-4-yl)benzo[d]oxazol-5-yl)acetamide] | 177 | 422
Cn1nnc(C(c2ccccc2)N2C[C@H]3CC[C@@H](C2)N3C(=O)c2cc(-c3nc4cc(N5CCCC5=O)ccc4o3)ccn2)n1 (stereo partly drawn) [Compound 19, 1-(2-(2-((1R,5S)-3-((2-methyl-2H-tetrazol-5-yl)(phenyl)methyl)-3,8-diazabicyclo[3.2.1]octane-8-carbonyl)pyridin-4-yl)benzo[d]oxazol-5-yl)pyrrolidin-2-one] | 19 | 23
CC(=O)Nc1ccc2oc(-c3ccnc(C(=O)N4C5CC4CN(C(c4ccccc4)c4nnn(C)n4)C5)c3)nc2c1 (stereo not shown) [Compound 20, N-(2-(2-(3-((2-methyl-2H-tetrazol-5-yl)(phenyl)methyl)-3,6-diazabicyclo[3.1.1]heptane-6-carbonyl)pyridin-4-yl)benzo[d]oxazol-5-yl)acetamide] | 919 | 545
Cn1nnc(C(c2ccccc2)N2CC3CC(C2)N3C(=O)c2cc(-c3nc4cc(NC(=O)C5CC5)ccc4o3)ccn2)n1 (stereo not shown) [Compound 21, N-(2-(2-(3-((2-methyl-2H-tetrazol-5-yl)(phenyl)methyl)-3,6-diazabicyclo[3.1.1]heptane-6-carbonyl)pyridin-4-yl)benzo[d]oxazol-5-yl)cyclopropanecarboxamide] | 436 | 163
CC(=O)Nc1ccc2oc(-c3ccnc(C(=O)N4C5CCC4CN(C(c4ccccc4)c4nnn(CCF)n4)C5)c3)nc2c1 (stereo not shown) [Compound 22, N-(2-(2-(3-((2-(2-fluoroethyl)-2H-tetrazol-5-yl)(phenyl)methyl)-3,8-diazabicyclo[3.2.1]octane-8-carbonyl)pyridin-4-yl)benzo[d]oxazol-5-yl)acetamide] | 33 | 25
CC(=O)Nc1ccc2oc(-c3ccnc(C(=O)N4CC5CC(C4)N5C(c4ccccc4)c4nnn(C)n4)c3)nc2c1 (stereo not shown) [Compound 23, N-(2-(2-(6-((2-methyl-2H-tetrazol-5-yl)(phenyl)methyl)-3,6-diazabicyclo[3.1.1]heptane-3-carbonyl)pyridin-4-yl)benzo[d]oxazol-5-yl)acetamide] | > 10000 | > 10000
Cn1nnc(C(c2ccccc2)N2CCN(C(=O)c3cc(-c4nc5cc(NC(=O)[C@@H]6CC6(F)F)ccc5o4)ccn3)CC2)n1 (stereo partly drawn) [Compound 24, (1S)-2,2-difluoro-N-(2-(2-(4-((2-methyl-2H-tetrazol-5-yl)(phenyl)methyl)piperazine-1-carbonyl)pyridin-4-yl)benzo[d]oxazol-5-yl)cyclopropane-1-carboxamide] | 32 | 12
Cn1nnc(C(c2ccccc2)N2CCN(C(=O)c3cc(-c4nc5cc(NC(=O)[C@@H]6C[C@H]6F)ccc5o4)ccn3)CC2)n1 (stereo partly drawn) [Compound 25, (1S,2R)-2-fluoro-N-(2-(2-(4-((2-methyl-2H-tetrazol-5-yl)(phenyl)methyl)piperazine-1-carbonyl)pyridin-4-yl)benzo[d]oxazol-5-yl)cyclopropane-1-carboxamide] | 68 | 60
Cn1nnc(C(c2ccccc2)N2CCN(C(=O)c3cc(-c4nc5cc(NC(=O)[C@@H]6C[C@@H]6F)ccc5o4)ccn3)CC2)n1 (stereo partly drawn) [Compound 26, (1S,2S)-2-fluoro-N-(2-(2-(4-((2-methyl-2H-tetrazol-5-yl)(phenyl)methyl)piperazine-1-carbonyl)pyridin-4-yl)benzo[d]oxazol-5-yl)cyclopropane-1-carboxamide] | 20 | 3
Cn1nnc(C(c2ccccc2)N2CCN(C(=O)c3cc(-c4nc5cc(NC(=O)[C@H]6C[C@@H]6F)ccc5o4)ccn3)CC2)n1 (stereo partly drawn) [Compound 27, (1R,2S)-2-fluoro-N-(2-(2-(4-((2-methyl-2H-tetrazol-5-yl)(phenyl)methyl)piperazine-1-carbonyl)pyridin-4-yl)benzo[d]oxazol-5-yl)cyclopropane-1-carboxamide] | 127 | 33
Cn1nnc(C(c2ccccc2)N2CCN(C(=O)c3cc(-c4nc5cc(NC(=O)[C@H]6C[C@H]6F)ccc5o4)ccn3)CC2)n1 (stereo partly drawn) [Compound 28, (1R,2R)-2-fluoro-N-(2-(2-(4-((2-methyl-2H-tetrazol-5-yl)(phenyl)methyl)piperazine-1-carbonyl)pyridin-4-yl)benzo[d]oxazol-5-yl)cyclopropane-1-carboxamide] | 27 | 17
O=C(Nc1ccc2oc(-c3ccnc(C(=O)N4CCN(C(c5ccccc5)c5nnn(C(F)F)n5)CC4)c3)nc2c1)[C@@H]1C[C@H]1F (stereo partly drawn) [Compound 30, (1S,2R)-2-fluoro-N-(2-(2-(4-((2-difluoromethyl-2H-tetrazol-5-yl)(phenyl)methyl)piperazine-1-carbonyl)pyridin-4-yl)benzo[d]oxazol-5-yl)cyclopropane-1-carboxamide] | 27 | 12
O=C(Nc1ccc2oc(-c3ccnc(C(=O)N4CCN(C(c5ccccc5)c5nnn(C(F)F)n5)CC4)c3)nc2c1)[C@H]1C[C@@H]1F (stereo partly drawn) [Compound 32, (1R,2S)-2-fluoro-N-(2-(2-(4-((2-difluoromethyl-2H-tetrazol-5-yl)(phenyl)methyl)piperazine-1-carbonyl)pyridin-4-yl)benzo[d]oxazol-5-yl)cyclopropane-1-carboxamide] | 3 | 26
